Results on one compound are retold here after patent US20240165123A1, “USE OF A COMPOUND CONTAINING A TRICYCLIC HETEROARYL GROUP” (CSPC Zhongqi Pharmaceutical Technology (Shijiazhuang) Co., …, priority 2021, published 2024).

Data set [1] in a line: Toxicity test of single oral gavage administration in Beagle dogs. As to conditions: administered twice within 24 hours. The class given is in vivo. The procedure:
According to the general toxicology study in accordance with the NMPA “Good Laboratory Practice for Non-clinical Laboratory Studies” and FDA GLP specification (21CFR Part 58), and in line with the requirements of International Conference on Harmonization of Technical Requirements for Registration of Pharmaceuticals for Human Use (ICH) and the NMPA relevant guidelines, the toxicology study on Compound (I) was carried out to provide safety data support for the use of Compound (I) in clinical patients. The administration mode and the experimental results were as follows: […]

A short description of data set [2]: Phase I clinical trial, single ascending dose. The class given is in vivo. The following applies: human; single ascending dose up to 240 mg. On the procedure: Compound (I) had no effect on the central nervous system, respiratory system and cardiovascular system of animals, and was expected to have no side effects on the central nervous system, respiratory system and cardiovascular system of human. The NOAEL of single administration to rats was 2000 mg/kg, the MTD of administration to Beagle dogs was 500 mg/kg/time (1000 mg/kg/day), the NOAEL of repeated administration to rats for 28 days was 10 mg/kg/time (20 mg/kg/day), and the NOAEL of repeated administration to Beagle dogs for 28 days was 3 mg/kg/time (6 mg/kg/ day). […] The effective dose for rats was 3 mg/kg/time bid. According to the exposure, Compound (I) had 1-fold safety window in Beagles and 8-13-fold safety window in SD rats. According to the dose calculation, Compound (I) had 3-fold safety windows in both Beagle dogs and SD rats. The proposed and undetermined initial ascending dose of Compound (I) in the first-in-human trial was 15 mg. […] Therefore, according to the pre-clinical toxicological study data of Compound (I), the single ascending doses of phase I clinical trial to be carried out were 15 mg, 45 mg, 60 mg, 90 mg, 135 mg, 180 mg, 240 mg, 300 mg and 360 mg.

In data set [1], `NC(=O)c1cnc(Nc2ccc3c(c2)OC[C@H]2CN(S(=O)(=O)C4CC4)CCN32)nc1NC1CC1` [Compound (I), (R)-4-(cyclopropylamino)-2-((3-(cyclopropylsulfonyl)-1,2,3,4,4a,5-hexahydrobenzo[b]pyrazolo[1,2-d][1,4]oxazin-8-yl)amino)pyrimidine-5-arboxamide] registered an MTD of 500 mg/kg/time. The MTD at 24 h in data set [1] (dog, in vivo) is 1000 mg/kg/day. In addition, the “Safety in phase I clinical trial” value in data set [2] is given as “no safety issues above Level 3”.
